Laboratory results from paper PMC9738062, “Selectively Halogenated Flavonolignans—Preparation and Antibacterial Activity” (International Journal of Molecular Sciences, 2022).
Entries after “also recorded” stand apart in the source; their conditions may differ.

How the values were obtained:
[1] = test system: Vibrio campbellii BAA 1118 (AI-1); assay: microbe, parasite or virus in culture; type: cell-based; settings: for EC50: Vibrio campbellii, BAA1118, 16 h, read-out: EC50 (concentration that halved the communication); for SI (selectivity index): ratio IC50 (viability) / EC50 (communication), BAA 1118
From the text: (§1) Commercially available strains of Vibrio campbellii were used to evaluate the ability of flavonoids and their derivatives to inhibit bacterial quorum sensing. V. campbellii uses two types of autoinducing molecules for its communication—N-acyl-homoserine lactones (Autoinducer I, AI-1, strain BAA 1118) and furanosyl borate diester (Autoinducer II, AI-2, strain BAA 1119). AI-1-based communication is mainly used by Gram-negative bacteria, while AI-2-based communication is found in both Gram-negative and Gram-positive bacteria. The mutant strains of V. campbellii BA1118 and BA1119 respond only to AI-1 or AI-2, respectively, and the response to the respective AI concentration is measured as luminescence. The higher the AI concentration, the higher the luminescence signal. The ability to inhibit the communication was expressed as the selectivity index (SI), calculated as the ratio between the concentration that halved the viability (IC50) and the concentration that halved the communication (EC50) of the respective V. campbellii strains. […] The antimicrobial activity of quorum-sensing inhibitors is undesirable because it creates a selection pressure and can lead to the development of resistance.
(§2) The inhibition of bacterial extracellular communication was measured using Vibrio campbellii strains BAA-1118 and BAA-1119. The experiment was performed according to the methods of Szemerédi et al.. Briefly, 5 × 10^5 CFU/mL (colony-forming units per milliliter) were seeded in an Autoinducer Bioassay medium (NaCl 17.5 g/L, MgSO4 12.3 g/L, Casamino acids 2 g/L, 10 mL of 1 M potassium phosphate pH 7.0, 10 mL of 0.1 M L-arginine, and 10 mL of glycerol in 970 mL of deionized water) in a 96-well plate. Immediately, the tested compounds were added at the final concentration of 0.2–200 µM and luminescence was recorded for 16 h by a SpectraMax i3x microplate reader set at 30 °C, an integration time of 10,000 ms, and shaking for 60 s before measurement. […] The selectivity index was calculated as the […]. The EC50 and IC50 were calculated using GraphPad Prism software version 5.00 for Windows with a nonlinear regression curve fit.

[2] = test system: Vibrio campbellii BAA 1119 (AI-2); assay: microbe, parasite or virus in culture; type: cell-based; settings: for EC50: Vibrio campbellii, BAA1119, 16 h, read-out: EC50 (concentration that halved the communication); for SI (selectivity index): ratio IC50 (viability) / EC50 (communication), BAA 1119
From the text: as §1, §2

[3] = test system: Vibrio campbellii BAA 1118 (AI-1); assay: Viability of the quorum-sensing reporter culture (resazurin assay), AI-1 strain; type: cell-based; settings: BAA1118, V. campbellii BAA 1118, resazurin assay, read-out: IC50 (concentration that halved the viability)
From the text: as §1, §2

[4] = test system: Vibrio campbellii BAA 1119 (AI-2); assay: Viability of the quorum-sensing reporter culture (resazurin assay), AI-2 strain; type: cell-based; settings: BAA1119, V. campbellii BAA 1119, resazurin assay, read-out: IC50 (concentration that halved the viability)
From the text: as §1, §2

[5] = test system: multidrug-resistant S. aureus; assay: Sensitization of antibiotic-resistant bacteria (compound plus breakpoint antibiotic concentration); type: cell-based, Staphylococcus aureus; settings: for Effect on viability in combination with chloramphenicol: chloramphenicol 8 mg/L; for Effect on viability in combination with chloramphenicol / Effect on viability in combination with gentamicin: flavonoid 40 µM, 24 h; for Effect on viability in combination with gentamicin: gentamicin 1 mg/L
Experimental: Clinically relevant antibiotics were selected for sensitization testing according to the European Committee on Antimicrobial Susceptibility Testing (EUCAST). Neither colistin and imipenem at breakpoint concentrations (according to EUCAST, […] and […]) affected the growth of the multidrug-resistant clinical strain of P. aeruginosa. Similarly, neither chloramphenicol and gentamicin at breakpoint concentrations ([…], respectively) affected the multidrug-resistant clinical strain of S. aureus. Flavonoids and their derivatives (1–40 µM) were used in combination therapy, along with the breakpoint concentration of antibiotics. After co-incubation, the minimum inhibitory concentration of flavonoids inhibiting the visible growth of bacteria was determined (Table 2).
Clinical isolates of P. aeruginosa and S. aureus were obtained from the General University Hospital in Prague (Prague, Czech Republic). P. aeruginosa was resistant to ciprofloxacin, oxacillin, ticarcillin, colistin, gentamicin, and imipenem. S. aureus was resistant to ciprofloxacin, gentamicin, erythromycin, chloramphenicol, clindamycin, oxacillin, cefotaxime, and vancomycin. Bacteria were cultivated in Mueller–Hinton broth (MH broth, Merck). The susceptibility of the bacteria was evaluated by the minimum inhibitory concentrations (MIC). The MIC of derivatives in the presence of the antibiotic cut-off concentration was determined according to ISO 20776-1: 2020. The antibiotic cut-off concentration was chosen according to the European Committee on Antimicrobial Susceptibility Testing (EUCAST, Clinical breakpoints—bacteria (ver. 11.0), 1 January 2021). The 40 µM concentration of the derivatives was chosen as the highest concentration for the tests. Cell viability was determined by measuring absorbance (A590 nm) after 24 h incubation at 37 °C, 150 rpm.

[6] = ABTS cation radical scavenging; settings: vitamin C equivalent antioxidant capacity
Experimental: (§3) To further elucidate how halogenation affects other properties of the flavonoids studied, their 2,2′-azino-bis-(3-ethylbenzothiazoline-6-sulfonic acid) cation (ABTS) and 1,1-diphenyl-2-picrylhydrazyl (DPPH) radical scavenging, the Folin–Ciocalteu reagent (FCR) reducing, the ferric-reducing antioxidant power (FRAP), and the anti-lipoperoxidation activities were evaluated by in vitro methods (Supplementary Information Tables S1 and S2).
(§4) The antiradical activity was evaluated by the ability to scavenge ABTS and DPPH radicals. Reducing capacity was assessed by the ability to reduce the Folin–Ciocalteu reagent (FCR) and ferric ions (FRAP). The ability to inhibit lipid peroxidation of pooled male rat microsomal liver membranes induced by tert-butyl hydroperoxide was also evaluated and the results were expressed as IC50 values.

[7] = Folin-Ciocalteu reagent reduction; settings: gallic acid equivalents
Experimental: as §3, §4

[8] = DPPH radical scavenging; settings: 1,1-diphenyl-2-picrylhydrazyl radical scavenging
Experimental: as §3, §4

[9] = test system: pooled male rat microsomal liver membranes; assay: Inhibition of lipid peroxidation induced by tert-butyl hydroperoxide; type: biochemical; settings: male rat microsomes, read-out: ILP IC50
Experimental: as §4

SMILES | EC50 [1] [µM] | EC50 [2] [µM] | SI (selectivity index) [2] | IC50 [3] [µM] | IC50 [4] [µM] | Effect on viability in combination with chloramphenicol [5] | Effect on viability in combination with gentamicin [5] | Gentamicin-resistant phenotype of S. aureus (result in words) ([5]; gentamicin breakpoint concentration, compound 40 µM) | ABTS [CEAC] [6] [CEAC] | FCR [GAE] [7] [GAE] | IC50 [8] [µM] | IC50 [9] [µM] | SI (selectivity index) [1] | Growth in combination with chloramphenicol ([5]; chloramphenicol breakpoint concentration, compound 40 µM as stated in the text) [%]
COc1cc([C@H]2Oc3cc([C@H]4Oc5c(Br)c(O)c(Br)c(O)c5C(=O)[C@@H]4O)ccc3O[C@@H]2CO)cc(Br)c1O [compound 21, 6,8,21-tribromosilybin A] | > 200 | 30.7 ± 1.6 | ≥6.5 ± 0.3 | > 200 | > 200 | - | reversion of resistance | reversed the resistant phenotype to a sensitive one; also recorded: revert the resistant phenotype into a sensitive one | 0.12 ± 0.02 | 0.99 ± 0.02 | 375 | 213 |  | 
O=C1c2c(cc(O)c(Br)c2O)O[C@H](c2ccc(O)c(O)c2)[C@H]1O [compound 7, 6-Bromotaxifolin] | 38.9 ± 1.6 | 11.9 ± 0.5 | 1.7 ± 0.2 | 59 ± 0.1 | 19.7 ± 1 | - |  |  | 0.97 ± 0.03 | 1.70 ± 0.01 | 7.77 | 201 | 1.5 ± 0.1 | 
COc1cc([C@H]2Oc3cc([C@H]4Oc5c(Br)c(O)c(Br)c(O)c5C(=O)[C@@H]4O)ccc3O[C@@H]2CO)ccc1O [compound 12, 6,8-dibromosilybin A] | 12.2 ± 0.4 | 13.2 ± 0.3 | 6.1 ± 0.5 | 23.5 ± 1 | 80.5 ± 4.8 | - |  |  | 0.30 ± 0.04 | 0.85 ± 0.03 | 383 | 710 | 1.9 ± 0.2 | 
COc1cc([C@@H]2Oc3c(O)cc(-c4oc5c(Br)c(O)cc(O)c5c(=O)c4O)cc3[C@H]2CO)ccc1O [compound 18, 8-Bromo-2,3-dehydrosilychristin A] | 29.4 ± 0.7 | 10.5 ± 0.2 | 2.2 ± 0.1 | 80.1 ± 1.7 | 23 ± 0.2 | - | - |  | 1.41 | 2.22 | 11.1 ± 0.6 | 60.1 ± 2.7 | 2.7 ± 0.1 | 
O=c1c(O)c(-c2ccc(O)c(O)c2)oc2cc(O)cc(O)c12 [compound 2, quercetin, reference compound] | 15.9 ± 0.5 | 4.8 ± 0.2 | 2.2 ± 0.2 | 24.5 ± 0.8 | 10.6 ± 0.5 | - | - |  | 2.87 ± 0.23 | 2.33 ± 0.05 | 2.06 | 39 ± 2.9 | 1.5 ± 0.1 | 
O=C1c2c(O)cc(O)cc2OC(c2ccc(O)c(O)c2)C1O (centres unmarked) [compound 1, taxifolin, reference compound] | 63.7 ± 2.7 | 7.3 ± 0.3 | 11.0 ± 0.6 | 71 ± 3 | 80 ± 1.7 | - |  |  | 1.08 ± 0.02 | 1.92 ± 0.05 | 2.91 | 16.3 ± 1.1 | 1.1 ± 0.1 | 
COc1cc(C2Oc3cc(-c4oc5c(Br)c(O)cc(O)c5c(=O)c4O)ccc3OC2CO)ccc1O (centres unmarked) [compound 16, 8-bromo-2,3-dehydrosilybin AB] | > 200 | 6.9 ± 0.3 | 12.7 ± 1.0 | > 200 | 87 ± 2.5 | - | - |  | 1.15 ± 0.03 | 1.56 ± 0.03 | 13.4 | 49.2 ± 1.9 |  | 
COc1cc([C@@H]2Oc3c(O)cc(-c4oc5cc(O)cc(O)c5c(=O)c4O)cc3[C@H]2CO)ccc1O [compound 6, 2,3-dehydrosilychristin A, reference compound] | 22.3 ± 1 | 11.1 ± 0.1 | 0.99 ± 0.05 | 43 ± 1.5 | 11 ± 0.4 |  | - |  | 2.10 | 2.43 | 10.8 ± 0.4 | 51.9 ± 2.2 | 1.9 ± 0.2 | 69
